Results published in ChEMBL document CHEMBL4346732, “Inhibition of neutral lipid synthesis by avarols from a marine sponge” (Bioorg Med Chem Lett, 2019).

What was measured:
[1] = Inhibition of SOAT-mediated oleic acid-induced [14C]cholesterol ester accumulation in CHOK1 cells after 6 hrs using [14C]oleic acid by […]; format: cell-based; settings: Cricetulus griseus, CHO-K1, 6 h
[2] = Inhibition of DGAT-mediated oleic acid-induced [14C]neutral lipid synthesis in CHOK1 cells after 6 hrs using [14C]oleic acid by […]; format: cell-based; settings: Cricetulus griseus, CHO-K1, 6 h
CHO-K1 = experiment: Cytotoxicity against CHOK1 cells assessed as reduction in cell viability; format: cell-based; settings: Cricetulus griseus
[3] = Inhibition of SOAT in CHOK1 cell microsomal fraction using [1-14C]oleoyl-CoA as substrate measured after 5 mins by TLC based method; set-up: species or system Cricetulus griseus
[4] = Inhibition of DGAT in CHOK1 cell microsomal fraction using [14C]palmitoyl-CoA as substrate measured after 15 mins TLC based method; set-up: species or system Cricetulus griseus
[5] = biological target: T1, Sterol O-acyltransferase 1 (Chlorocebus aethiops, UniProt O77760); experiment: Inhibition of African green monkey SOAT1 expressed in CHO cells using [1-14C]oleic acid incubated for 6 hrs by TLC based method; format: cell-based
T1 sequence (O77760 whole entry): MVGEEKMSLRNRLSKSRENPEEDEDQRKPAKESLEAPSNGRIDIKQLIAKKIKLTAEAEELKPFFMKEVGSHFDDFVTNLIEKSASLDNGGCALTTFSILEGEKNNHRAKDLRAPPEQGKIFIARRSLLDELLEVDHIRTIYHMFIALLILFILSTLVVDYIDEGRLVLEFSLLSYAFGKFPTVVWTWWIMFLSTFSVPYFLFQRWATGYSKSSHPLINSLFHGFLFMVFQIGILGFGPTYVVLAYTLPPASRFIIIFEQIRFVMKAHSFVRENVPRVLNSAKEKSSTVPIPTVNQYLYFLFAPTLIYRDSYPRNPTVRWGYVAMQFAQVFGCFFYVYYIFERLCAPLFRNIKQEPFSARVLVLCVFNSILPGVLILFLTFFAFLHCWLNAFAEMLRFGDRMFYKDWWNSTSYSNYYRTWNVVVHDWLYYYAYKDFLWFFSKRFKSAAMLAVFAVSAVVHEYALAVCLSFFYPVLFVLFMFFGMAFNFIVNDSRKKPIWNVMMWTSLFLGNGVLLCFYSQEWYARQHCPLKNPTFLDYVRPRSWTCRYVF

[6] = biological target: T2, Sterol O-acyltransferase 2 (Chlorocebus aethiops, UniProt O77759); experiment: Inhibition of African green monkey SOAT2 expressed in CHO cells using [1-14C]oleic acid incubated for 6 hrs by TLC based method; format: cell-based
T2 sequence (O77759 whole entry): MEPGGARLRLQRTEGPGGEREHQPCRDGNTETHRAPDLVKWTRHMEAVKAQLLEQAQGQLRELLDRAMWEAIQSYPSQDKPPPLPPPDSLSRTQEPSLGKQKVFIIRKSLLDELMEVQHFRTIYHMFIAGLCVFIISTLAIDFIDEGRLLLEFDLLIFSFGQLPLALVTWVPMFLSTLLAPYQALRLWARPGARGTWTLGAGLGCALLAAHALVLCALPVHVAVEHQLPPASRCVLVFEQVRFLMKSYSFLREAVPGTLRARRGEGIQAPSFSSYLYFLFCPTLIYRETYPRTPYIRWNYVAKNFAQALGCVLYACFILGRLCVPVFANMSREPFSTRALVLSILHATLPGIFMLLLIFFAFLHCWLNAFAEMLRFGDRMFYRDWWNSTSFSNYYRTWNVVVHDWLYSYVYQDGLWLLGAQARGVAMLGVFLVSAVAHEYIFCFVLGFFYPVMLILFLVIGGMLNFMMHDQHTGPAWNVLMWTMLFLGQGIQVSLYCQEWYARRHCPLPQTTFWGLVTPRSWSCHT

[7] = biological target: T3, Sterol O-acyltransferase 1 (Cricetulus griseus, UniProt Q60457); experiment: Inhibition of SOAT1 in CHO cell microsomal fraction using [1-14C]oleoyl-CoA as substrate measured after 5 mins by TLC based method
T3 sequence (Q60457 whole entry): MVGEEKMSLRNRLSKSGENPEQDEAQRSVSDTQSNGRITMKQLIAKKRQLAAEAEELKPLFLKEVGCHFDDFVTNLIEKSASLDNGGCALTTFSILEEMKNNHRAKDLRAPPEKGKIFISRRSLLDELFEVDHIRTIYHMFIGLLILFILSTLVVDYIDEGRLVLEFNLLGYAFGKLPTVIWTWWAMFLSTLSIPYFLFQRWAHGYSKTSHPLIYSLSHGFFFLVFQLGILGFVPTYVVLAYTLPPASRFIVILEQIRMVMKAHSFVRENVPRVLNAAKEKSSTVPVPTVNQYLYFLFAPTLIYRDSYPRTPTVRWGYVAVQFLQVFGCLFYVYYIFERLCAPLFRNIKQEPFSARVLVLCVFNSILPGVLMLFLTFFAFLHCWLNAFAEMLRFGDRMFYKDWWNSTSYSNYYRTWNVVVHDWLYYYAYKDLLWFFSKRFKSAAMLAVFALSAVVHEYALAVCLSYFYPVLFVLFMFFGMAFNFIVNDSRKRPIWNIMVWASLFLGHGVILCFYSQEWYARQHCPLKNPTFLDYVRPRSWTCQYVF

[8] = Inhibition of SOAT2 in CHO cell microsomal fraction using [1-14C]oleoyl-CoA as substrate measured after 5 mins by TLC based method; set-up: species or system Cricetulus griseus

Compound	IC50 [1] [µM]	IC50 [2] [µM]	IC50 (CHO-K1) [µM]	IC50 [3] [µM]	IC50 [4] [µM]	IC50 [5] [µM]	IC50 [6] [µM]	IC50 [7] [µM]	IC50 [8] [µM]
CC1=CCC[C@H]2[C@]3(C)Cc4cc(O)ccc4O[C@]3(C)CC[C@]12C	13.9	> 31.1	> 31.1	–	–	–	–	–	–
CC(=O)Oc1ccc(O)c(C[C@]2(C)[C@@H](C)CC[C@]3(C)C(C)=CCC[C@@H]23)c1	23.1	> 27.3	> 27.3	–	–	–	–	–	–
C=C1CCC[C@H]2[C@](C)(Cc3cc(OC)ccc3O)[C@@H](C)CC[C@]12C	10.4	> 29.6	> 29.6	–	–	–	–	–	–
COc1ccc(O)c(C[C@]2(C)[C@@H](C)CC[C@]3(C)C(C)=CCC[C@@H]23)c1	11.4	> 29.6	> 29.6	–	–	–	–	–	–
C=C1CCC[C@H]2[C@](C)(Cc3cc(O)ccc3OC(C)=O)[C@@H](C)CC[C@]12C	11.9	> 27.3	> 27.3	–	–	–	–	–	–
CC(=O)Oc1ccc(OC(C)=O)c(C[C@]2(C)[C@@H](C)CC[C@]3(C)C(C)=CCC[C@@H]23)c1	16.5	23.5	> 24.4	–	–	–	–	–	–
C=C1CCC[C@H]2[C@](C)(Cc3cc(OC(=O)CC)ccc3OC(=O)CC)[C@@H](C)CC[C@]12C	11	> 22.8	> 22.8	–	–	–	–	–	–
C=C1CCC[C@H]2[C@](C)(Cc3cc(O)ccc3O)[C@@H](C)CC[C@]12C	11	14.2	> 30.9	15.6	44.3	19.2	19.1	32	14
CCC(=O)Oc1ccc(OC(=O)CC)c(C[C@]2(C)[C@@H](C)CC[C@]3(C)C(C)=CCC[C@@H]23)c1	16.7	13.5	> 22.8	–	–	–	–	–	–
C=C1CCC[C@H]2[C@](C)(Cc3cc(OC(C)=O)ccc3OC(C)=O)[C@@H](C)CC[C@]12C	10.8	> 24.4	> 24.4	–	–	–	–	–	–
CC1=CCC[C@H]2[C@](C)(CC3=CC(=O)C=C(N)C3=O)[C@@H](C)CC[C@]12C	13.2	27.5	> 30.9	–	–	–	–	–	–
C=C1CCC[C@H]2[C@](C)(Cc3cc(OC(C)=O)ccc3O)[C@@H](C)CC[C@]12C	16	> 27.3	> 27.3	–	–	–	–	–	–
CC(=O)Oc1ccc(O)cc1C[C@]1(C)[C@@H](C)CC[C@]2(C)C(C)=CCC[C@@H]12	13.7	> 27.3	> 27.3	–	–	–	–	–	–
CC1=CCC[C@H]2[C@](C)(Cc3cc(O)ccc3O)[C@@H](C)CC[C@]12C [AVAROL]	5.74	6.8	> 30.9	7.31	20	14.2	14.8	12	8.1
